Assay results reported in patent publication US20260266804A1, “MODEL FOR ANALYZING INFLAMMATION AND USES THEREOF” (Technion Research & Development Foundation Limited, priority 2022, published 2026).
“Also recorded” adds a separate entry of the source.

Assays:
Caco-2 cells = assay: SNAP treatment of Caco2 cells, IL-8 mRNA by qRT-PCR; type: cell-based, human; details: SNAP two sequential doses, 22 hours
Protocol: (§1) Day before SNAP (Sigma) treatment, Caco2 cells were cultured in working medium with MEM (Sigma) supplemented with 20% heat inactivated FCS (Biological Industries), ferric ammonium citrate (Sigma), non-essential amino acids (Gibco), sodium pyruvate (Gibco), L-glutamine (Biological Industries) and Pen.-strep. (Biological Industries) in an oxygen modified incubator (6% O2) at 37° C. and 5% CO2.
(§2) SNAP was added to the cells for 22 hours in two sequential doses 1 mM each. First dose was added for 6 hours, 20% of the medium was then collected and replaced with working medium containing 5 mM SNAP for additional incubation of […].
(§3) RNA was extracted using the Trizol reagent (Invitrogen). Cells were harvested directly with Trizol, whereas tissues were first ground in liquid-N2 cooled mortars then incubated with Trizol following manufacturer's instructions. Isolated RNA samples were submitted to DNase treatment using DNase I recombinant, RNase-free kit (Roche). cDNA was prepared using cDNA Reverse Transcription Kit (Quanta biosciences), and the RT-PCRs were performed using SYBR master mix (Applied Biosystems). The delta Ct method was used to calculate a relative expression of the target gene in comparison to topoisomerase 1 for epithelial cells and ubiquitin for macrophage genes.

Caco2 cells = assay: SNAP treatment of 55Fe labeled Caco2 cells, CPM in cells and medium; type: cell-based, human; details: SNAP induced Caco2 cells
Protocol: as §1, §2
Cells were given medium containing transferrin loaded with labeled iron. First labeled Ferric nitrilotriacetate (Fe-(NTA)2) was prepared, by mixing 5 parts of […] (pH=3) in 0.9% NaCl, with 4 parts of 100 mM of ferric chloride solution (FeCl3) in 0.1M HCl and one part of ^55Fe labeled ferric chloride solution (^55FeCl3). The mixture was incubated for 30 minutes at RT. Next, 125 parts of 1 mM human Apotransferrin (Kamada) solution in HBS was mixed with 12.5 parts of NaHCO3 and 10 parts of the labeled Ferric nitrilotriacetate (50 mM). The mixture was then added to the growth medium, 147.5 ul of labeled transferrin was added to 2 ml of growth medium. Cells were labeled with ^55Fe for ON. Then the medium was removed and cells were washed with PBS. […]

[1] = tested on: epithelial pro-inflammatory markers (Caco2 cells); assay: Pre-conditioning of Caco2 cells with tempol, then Raw 264.7 cells and LPS, qRT-PCR; type: cell-based, human; details: tempol 3 mM 16 hours pre-conditioning, then Raw 264.7 and LPS 6 hours
Protocol: Representative SDS-PAGE gels of subcellular fractions, cytosolic nuclear soluble and nuclear chromatic bound fractions (upper). Protein levels were quantified with Image J (lower), values presented as mean±SD. n=4. * DFO 100 Um for 24 hours. C-E. Co-culture of epithelial cells and macrophages with targeted deletion of IRP1 (MΦ Irp1^−/−) didn't restore iron homeostasis in the co-culture upon LPS stimulation. Epithelial cells were co-cultured with BMDM isolated from C57BL/6 mice (MΦ wt) or from IRP^−/− on C57BL/6 background mice (MΦ Irp1^−/−) as described. LPS 200 ng/ml was added for 24 hours. […] Representative immunoblot of FtH. n=8. […] Representative blot of IRP2. n=8. E. Aconitase activities were decreased in epithelial cells and macrophages in EC-MΦ wt and EC-MΦ Irp1^−/− co-cultures. Representative aconitase in-gel assay. n=4. […] Caco2 cells were cultured with tempol (3 mM) for 16 hours, cells were then washed, and Raw 264.7 cells were added. When Raw 264.7 cells were adhered, the excess of cells was washed away and LPS was added for 6 hours. Expression levels were measured by qRT-PCR. n=6.
RNA was extracted using the Trizol reagent (Invitrogen). Cells were harvested directly with Trizol, whereas tissues were first ground in liquid-N2 cooled mortars then incubated with Trizol following manufacturer's instructions. […]

[2] = tested on: aconitase (IRP1 activation); assay: Tempol in ECs-Raw 264.7 co-culture, aconitase in-gel activity; type: cell-based; details: Tempol 3 mM, direct correlation with incubation time
Protocol: (§4) Day before co-culture assembly Caco2 cells were cultivated in an oxygen modified incubator (6% O2). Confluent co-cultures of epithelial cells and macrophages were obtained by seeding 2×10^5 cells per cm^2 surface area. Cell culture dishes employed were 10 cm or 6 well. For Caco2-Raw 264.7 co-cultures, Caco2 cells were seeded, after adherence Raw264.7 cells were added accordingly. For Caco2-BMDM co-cultures, on the six day of bone marrow extraction the cells were plated as previously mentioned, and Caco2 cells were added to them accordingly. Co-cultures were cultivated in an oxygen modified incubator (6% O2) at 37° C. and 5% CO2. Co-culture ratios used were 1:1 or 2:1 or 1:2.
Mitochondrial and cytosolic aconitase activities were assayed in parallel in cell lysates after electrophoretic separation as previously described [Tong et al. Cell metabolism 3, 199-210 (2006)]. Protein concentrations were determined using the Bradford assay (BIO-RAD, Hercules, California). Aconitase activity was detected chromogenically by incubating the gels in 100 mM Tris pH 8, 1 mM NADP, 2.5 mM cis-aconitic acid, 1.2 mM 3-(4,5-dimethylthiazol-2-yl)-2,5-diphenyl tetrazolium bromide, 0.3 mM phenazine methosulfate, 5 mM MgCl2 and 5 Units/ml isocitrate dehydrogenase. All chemicals were purchased from Sigma Missouri.

ECs-Raw 264.7 co-culture = assay: Tempol in ECs-Raw 264.7 co-culture, pro-inflammatory markers by RTqPCR; type: cell-based, human and mouse; details: Tempol 3 mM alone, different times, no LPS
Protocol: as §4, §3

**Q.** How did the “IL-8 mRNA expression levels / inflammatory response in Caco-2 cells alone” value (Caco-2 cells) turn out when `CC(=O)N[C@H](C(=O)O)C(C)(C)SN=O` (racemic) [SNAP, S-Nitroso-N-Acetylpenicillamine] was run?
**A.** The value was “showed an inflammatory response; also recorded: elevated”.

**Q.** What about the intracellular iron (Caco2 cells; 55Fe CPM in the cells) of the same compound?
**A.** The intracellular iron was “reduced”.

**Q.** And the extracellular iron (Caco2 cells; 55Fe CPM in the medium)?
**A.** Its extracellular iron is “increased”.

**Q.** What does the source list for `CC1(C)CC(O)CC(C)(C)N1[O]` [tempol]?
**A.** expression levels of selected epithelial pro-inflammatory markers [1]: significantly increased; aconitase activities [2]: decreased; transcription levels of pro-inflammatory markers / inflammatory response (ECs-Raw 264.7 co-culture): did not elicit any inflammatory response; also recorded: increased trend that was not statistically significant
